# According to patent publication US20100144865A1, “COMPOUND FEED FOR AQUACULTURE” (priority 2007, published 2010):
# Test system: Atlantic salmon (Salmo salar L.) hepatocytes
# Format: in vitro ADME
# Description: The isolated hepatocytes were incubated with 35 nmol, 2.5 μCi of [1-^14C] 18:3 (n-3) as well as non radiolabeled 18:3 (n-3), final concentration 7 μM, in 5 ml of L 15 culture medium without FBS. The radio labeled FA was added to the medium as potassium salt bound to BSA. To each experimental flask (4 radiolabeled and 7 with non-radiolabeled 18:3 (n-3)), DMSO (7.4 μl/5 ml) with sesamin (final concentration 0.05 mM) was added and to each control flasks (4 radiolabeled and 7 with non-radiolabeled 18:3 (n-3)), only DMSO (7.4 μl/5 ml) was added, in another two flasks sesamin but no FA was added. The cells were incubated at 12° C. for 48 h. The radiolabeled experiment flasks with and without sesamin (4 each) were washed and harvested in PBS for further analysis of β-oxidation and radiolabeled lipid classes and radiolabeled cellular fatty acids. The cells in the two flasks with no FA substrate added were denaturated after the incubation and thereafter added radiolabeled substrate in order to be used as a negative control for the ASP measurements and HPLC analyses. In the non-labeled study, control and sesamin flask (4 each) were washed in PBS prior to isolation of mRNA according to the protocol RNeasy® Mini Kit for gene expression analysis and 3 flasks of each control and sesamin were washed and harvested in PSB for fatty acid and sesamin analysis.
compound,measurement,value
"c1cc2c(cc1C1OCC3C(c4ccc5c(c4)OCO5)OCC13)OCO2 (stereo not drawn) [episesamin, 2,6-bis-(3,4-methylenedioxyphenyl)-trans-3,7-dioxabicyclo[3.3.0]octane]",bioavailability in hepatocytes compared with sesamin,higher
